Laboratory results published in patent publication US20190231771A1, “METHODS FOR TREATMENT AND PREVENTION OF OPIOID INDUCED CONSTIPATION USING ORAL COMPOSITIONS OF METHYLNALTREXONE” (Salix Pharmaceuticals, Ltd., priority 2011, published 2019).
Values joined by “and” are separate entries in the source; they are usually repeats but may differ in a detail not shown here. Identical values can stand only once. Like-named read-outs stand apart in the source and are kept apart here.

Assay: Comparative bioavailability: single oral 150, 300, 450 mg MNTX tablets vs 12 mg SC injection, crossover
Type: in vivo, human
Conditions: for t1/2 / half-life: harmonic mean; for bioavailability: arithmetic mean AUC0-∞, read-out: dose-normalized bioavailability of oral MNTX relative to SC MNTX
From the text: The oral dosage levels and formulation of MNTX evaluated here were the same as those in a phase 3 study of oral MNTX tablets, with the exception of a nonfunctional coating on the MNTX tablets. […] The pharmacokinetics of the uncoated tablet used in the phase 3 study and the coated tablets used in the current study were compared in a separate study. […] A single-dose pharmacokinetic profile of oral MNTX tablets was also planned for evaluation in this study.
Presented herein is a randomized, open-label, crossover study consisting of 6 dosing sequences, each with 2 dosing periods; the dosing periods were separated by 7 days. All subjects were housed in the clinical research unit from Day −1 through Day 14 and were discharged on Day 15, which concluded their participation in the study. Prior to receiving study drug on Days 1 and 8, the subjects underwent an overnight fast of at least 10 hours, beginning on Days 0 and 7, respectively. In both dosing periods, the subjects received a single oral dose of MNTX tablets (150, 300, or 450 mg) or a single SC injection of MNTX (12 mg). The dosing was conducted in a crossover fashion (e.g., a tablet was administered at one visit and a SC injection was administered at the alternate visit). The strength of oral methylnaltrexone dose (150 mg, 300 mg, or 450 mg) and the dosing sequence (Day 1: oral tablet; Day 8: SC injection vs the alternate dosing order) for each subject were determined by random assignment. Each oral dose was administered with 240 mL of room temperature drinking water. The subjects were instructed to drink all of the water and were told to swallow the tablets whole (e.g., not to chew, divide, or crush them). Blood samples were collected for pharmacokinetic analyses prior to dosing (approximately 1 hour prior) on Day 1, and at 0.25, 0.5, 1, 2, 4, 6, 8, 10, 12, 16, 24, 36, 48, 72, 96, 120, 144, and 168 hours after dosing on Days 1 and 8.
Each tablet contained 150 mg of the active pharmaceutical ingredient, MNTX.
Each injection vial contained 12 mg of the active pharmaceutical ingredient, MNTX, per 0.6 mL of solution (i.e., 20 mg/mL solution).
In this study, all 48 enrolled subjects received study drug in each of the 2 study periods and were included in the safety and pharmacokinetic analyses.
This was a phase 1, randomized, open-label, crossover study consisting of 6 dosing sequences, each with 2 dosing periods. In both dosing periods, the subjects received a single oral dose of MNTX tablets (150, 300, or 450 mg) or a single SC injection of MNTX (12 mg). The dosing was conducted in a crossover fashion (i.e., a tablet was administered at one visit and a SC injection was administered at the alternate visit).
Forty-eight subjects were enrolled and 47 subjects (97.9%) completed the study; one subject discontinued due to personal reasons after receiving study drug in both study periods. The subjects received study drug in accordance with the randomization schedule; specifically, 16 subjects each received a single oral dose of 150, 300, and 450 mg MNTX tablets and all 48 subjects received a single 12 mg SC injection of MNTX.

[1] = MNTX 12 mg SC Injection, single dose, mean
[2] = MNTX 150 mg Tablet vs 12 mg SC Injection
[3] = MNTX 150 mg Tablet, single oral dose, mean
[4] = MNTX 300 mg Tablet, single oral dose, mean
[5] = MNTX 450 mg Tablet, single oral dose, mean

C[N@+]1(CC2CC2)CC[C@]23c4c5ccc(O)c4O[C@H]2C(=O)CC[C@@]3(O)[C@H]1C5.[Br-] [MNTX, (R)—N-(cyclopropylmethyl) noroxymorphone methobromide]
t1/2 (MNTX 12 mg SC Injection, single dose): 9.16 h
AUC0-∞ [1]: 269.09 ng·h/mL
CL/F [1]: 45698.7 mL/h and 45698.71 mL/h
Cmax [1]: 174.01 ng/mL
AUC0-t GMR, tablet/injection × 100 [2]: 35.61%
AUC0-∞ GMR, tablet/injection × 100 [2]: 36.41%
Cmax GMR, tablet/injection × 100 [2]: 5.779%
t1/2 (MNTX 150 mg Tablet, single oral dose): 13.95 h
AUC0-∞ [3]: 106.87 ng·h/mL
CL/F [3]: 1735472.22 mL/h
Cmax [3]: 13.22 ng/mL
AUC0-t GMR, tablet/injection × 100 (MNTX 300 mg Tablet vs 12 mg SC Injection): 74.73%
t1/2 (MNTX 300 mg Tablet, single oral dose): 14.16 h
AUC0-∞ [4]: 231.24 ng·h/mL
CL/F [4]: 1564638.99 mL/h
Cmax [4]: 26.22 ng/mL
AUC0-t GMR, tablet/injection × 100 (MNTX 450 mg Tablet vs 12 mg SC Injection): 121.4%
t1/2 (MNTX 450 mg Tablet, single oral dose): 16.57 h
AUC0-∞ [5]: 373.32 ng·h/mL
CL/F [5]: 1664001.3 mL/h and 1664001.28 mL/h
Cmax [5]: 39.89 ng/mL
AUC(0-t) (human, plasma, oral, 150 mg, MNTX 150 mg Tablet, read-out: AUC0-t, Geometric LSM): 94.2 ng·h/mL
AUC(0-inf) (human, plasma, oral, 150 mg, MNTX 150 mg Tablet, read-out: AUC0-∞, Geometric LSM): 96.7 ng·h/mL
Cmax (human, plasma, oral, 150 mg, MNTX 150 mg Tablet, read-out: Cmax, Geometric LSM): 9.47 ng/mL
AUC(0-t) (human, plasma, oral, 300 mg, MNTX 300 mg Tablet, read-out: AUC0-t, Geometric LSM): 198 ng·h/mL
AUC(0-inf) (human, plasma, oral, 300 mg, MNTX 300 mg Tablet, read-out: AUC0-∞, Geometric LSM): 200 ng·h/mL
Cmax (human, plasma, oral, 300 mg, MNTX 300 mg Tablet, read-out: Cmax, Geometric LSM): 21.8 ng/mL
AUC(0-t) (human, plasma, oral, 450 mg, MNTX 450 mg Tablet, read-out: AUC0-t, Geometric LSM): 321 ng·h/mL
AUC(0-inf) (human, plasma, oral, 450 mg, MNTX 450 mg Tablet, read-out: AUC0-∞, Geometric LSM): 327 ng·h/mL
Cmax (human, plasma, oral, 450 mg, MNTX 450 mg Tablet, read-out: Cmax, Geometric LSM): 32.7 ng/mL
half-life (human, plasma, po, 150 mg, MNTX 150 mg Tablet, single oral dose): 14 h
AUC(0-t) (human, plasma, po, 150 mg, MNTX 150 mg Tablet, single oral dose, mean, read-out: AUC0-t): 105 ng·h/mL
AUC(0-inf) (human, plasma, po, 150 mg, MNTX 150 mg Tablet, single oral dose, mean, read-out: AUC0-∞): 107 ng·h/mL
Cmax (human, plasma, po, 150 mg, MNTX 150 mg Tablet, single oral dose, mean, read-out: Cmax): 13.2 ng/mL
half-life (human, plasma, po, 300 mg, MNTX 300 mg Tablet, single oral dose): 14.2 h
AUC(0-t) (human, plasma, po, 300 mg, MNTX 300 mg Tablet, single oral dose, mean, read-out: AUC0-t): 229 ng·h/mL
AUC(0-inf) (human, plasma, po, 300 mg, MNTX 300 mg Tablet, single oral dose, mean, read-out: AUC0-∞): 231 ng·h/mL
Cmax (human, plasma, po, 300 mg, MNTX 300 mg Tablet, single oral dose, mean, read-out: Cmax): 26.2 ng/mL
half-life (human, plasma, po, 450 mg, MNTX 450 mg Tablet, single oral dose): 16.6 h
AUC(0-t) (human, plasma, po, 450 mg, MNTX 450 mg Tablet, single oral dose, mean, read-out: AUC0-t): 367 ng·h/mL
AUC(0-inf) (human, plasma, po, 450 mg, MNTX 450 mg Tablet, single oral dose, mean, read-out: AUC0-∞): 373 ng·h/mL
Cmax (human, plasma, po, 450 mg, MNTX 450 mg Tablet, single oral dose, mean, read-out: Cmax): 39.9 ng/mL
half-life (human, plasma, sc, 12 mg, MNTX 12 mg SC Injection, single dose): 9.2 h
AUC(0-t) (human, plasma, sc, 12 mg, MNTX 12 mg SC Injection, single dose, mean, read-out: AUC0-t): 268 ng·h/mL
AUC(0-inf) (human, plasma, sc, 12 mg, MNTX 12 mg SC Injection, single dose, mean, read-out: AUC0-∞): 269 ng·h/mL
Cmax (human, plasma, sc, 12 mg, MNTX 12 mg SC Injection, single dose, mean, read-out: Cmax): 174 ng/mL
AUC(0-t) (human, plasma, sc, 12 mg, MNTX 12 mg SC Injection, read-out: AUC0-t, Geometric LSM): 264 ng·h/mL
AUC(0-inf) (human, plasma, sc, 12 mg, MNTX 12 mg SC Injection, read-out: AUC0-∞, Geometric LSM): 266 ng·h/mL
Cmax (human, plasma, sc, 12 mg, MNTX 12 mg SC Injection, read-out: Cmax, Geometric LSM): 164 ng/mL
Tmax (human, plasma, 12 mg SC injection, read-out: median Tmax (converted)): 0.25 h
Tmax (human, plasma, MNTX 150 mg Tablet, single oral dose, median, read-out: Tmax): 2 h
Tmax (human, plasma, MNTX 300 mg Tablet, single oral dose, median, read-out: Tmax): 1.5 h
Tmax (human, plasma, MNTX 450 mg Tablet, single oral dose, median, read-out: Tmax): 2 h
bioavailability (human, plasma, oral 150 mg vs 12 mg SC): 3.2%
bioavailability (human, plasma, oral 300 mg vs 12 mg SC): 3.4%
bioavailability (human, plasma, oral 450 mg vs 12 mg SC): 3.7%
Tmax (human, plasma, oral MNTX tablets 150 mg to 450 mg, read-out: median Tmax, range over the oral doses): 1.5 to 2 h
tolerability (oral 150, 300, 450 mg tablets and 12 mg SC injection, healthy volunteers): well tolerated
Tmax shorter following SC MNTX 12 mg versus oral MNTX 150, 300, and 450 mg (single doses): 6- to 8 fold
mean AUC0-∞ following SC MNTX 12 mg higher versus oral MNTX 300 mg (single doses): 16%
mean AUC0-∞ following SC MNTX 12 mg lower versus oral MNTX 450 mg (single doses): 28%
t1/2 shorter following SC MNTX 12 mg versus oral MNTX 150, 300, and 450 mg (single doses): 5 to 7 h
